Laboratory results: ChEMBL document CHEMBL3864146, “5-Alkyloxytryptamines are membrane-targeting, broad-spectrum antibiotics” (Bioorg Med Chem Lett, 2016)
Values after ≈ are worked out from the molar mass of the structure shown. Active and inactive are the calls of the source. The rule behind the calls is not given here.

Tests used:
Escherichia coli [1] = assay: Antibacterial activity against Escherichia coli BW25113 after 16 to 18 hrs by micro-dilution method; format: functional
Escherichia coli [2] = assay: Antibacterial activity against tolC-deficient Escherichia coli BW25113 after 16 to 18 hrs by micro-dilution method; format: functional
Bacillus subtilis [3] = assay: Antibacterial activity against Bacillus subtilis 168 after 16 to 18 hrs by micro-dilution method; format: functional; conditions: subsp. subtilis str. 168
Acinetobacter baumannii [4] = assay: Antibacterial activity against Acinetobacter baumannii after 16 to 18 hrs by micro-dilution method; format: functional
Staphylococcus aureus [5] = assay: Antibacterial activity against Staphylococcus aureus after 16 to 18 hrs by micro-dilution method; format: functional
Pseudomonas aeruginosa [6] = assay: Antibacterial activity against Pseudomonas aeruginosa after 16 to 18 hrs by micro-dilution method; format: functional
Salmonella typhimurium [7] = assay: Antibacterial activity against Salmonella typhimurium after 16 to 18 hrs by micro-dilution method; format: functional, Salmonella enterica subsp. enterica serovar Typhimurium; conditions: Salmonella enterica
Vibrio cholerae [8] = assay: Antibacterial activity against Vibrio cholerae after 16 to 18 hrs by micro-dilution method; format: functional
Shigella boydii [9] = assay: Antibacterial activity against Shigella boydii after 16 to 18 hrs by micro-dilution method; format: functional
Klebsiella pneumoniae [10] = assay: Antibacterial activity against Klebsiella pneumoniae after 16 to 18 hrs by micro-dilution method; format: functional
Klebsiella aerogenes [11] = assay: Antibacterial activity against Enterobacter aerogenes after 16 to 18 hrs by micro-dilution method; format: functional
Edwardsiella tarda [12] = assay: Antibacterial activity against Edwardsiella tarda after 16 to 18 hrs by micro-dilution method; format: functional
Morganella morganii [13] = assay: Antibacterial activity against Morganella morganii after 16 to 18 hrs by micro-dilution method; format: functional
Streptococcus pyogenes [14] = assay: Antibacterial activity against Streptococcus pyogenes after 16 to 18 hrs; format: functional
Escherichia coli [15] = assay: Bactericidal activity against Escherichia coli BW25113 after 22 hrs by micro-dilution method; format: functional; conditions: BW25113, 22 h
Escherichia coli [16] = assay: Bactericidal activity against tolC-deficient Escherichia coli BW25113 after 22 hrs by micro-dilution method; format: functional; conditions: BW25113, 22 h
Bacillus subtilis [17] = assay: Bactericidal activity against Bacillus subtilis 168 after 22 hrs by micro-dilution method; format: functional; conditions: subsp. subtilis str. 168, 22 h
Pseudomonas aeruginosa [18] = assay: Bactericidal activity against Pseudomonas aeruginosa after 22 hrs by micro-dilution method; format: functional
Salmonella typhimurium [19] = assay: Bactericidal activity against Salmonella typhimurium after 22 hrs by micro-dilution method; format: functional, Salmonella enterica subsp. enterica serovar Typhimurium; conditions: Salmonella enterica
Vibrio cholerae [20] = assay: Bactericidal activity against Vibrio cholerae after 22 hrs by micro-dilution method; format: functional
Shigella boydii [21] = assay: Bactericidal activity against Shigella boydii after 22 hrs by micro-dilution method; format: functional
Klebsiella pneumoniae [22] = assay: Bactericidal activity against Klebsiella pneumoniae after 22 hrs by micro-dilution method; format: functional
Klebsiella aerogenes [23] = assay: Bactericidal activity against Enterobacter aerogenes after 22 hrs by micro-dilution method; format: functional
Acinetobacter baumannii [24] = assay: Bactericidal activity against Acinetobacter baumannii after 22 hrs by micro-dilution method; format: functional
Edwardsiella tarda [25] = assay: Bactericidal activity against Edwardsiella tarda after 22 hrs by micro-dilution method; format: functional
Morganella morganii [26] = assay: Bactericidal activity against Morganella morganii after 22 hrs by micro-dilution method; format: functional
Staphylococcus aureus [27] = assay: Bactericidal activity against Staphylococcus aureus after 22 hrs by micro-dilution method; format: functional
Streptococcus pyogenes [28] = assay: Bactericidal activity against Streptococcus pyogenes after 22 hrs; format: functional
Escherichia coli [29] = assay: Ratio of MBC to MIC for Escherichia coli BW25113 after 16 to 18 hrs by micro-dilution method; format: functional
Escherichia coli [30] = assay: Ratio of MBC to MIC for tolC-deficient Escherichia coli BW25113; format: functional
Bacillus subtilis [31] = assay: Ratio of MBC to MIC for Bacillus subtilis 168; format: functional, subsp. subtilis str. 168
Pseudomonas aeruginosa [32] = assay: Ratio of MBC to MIC for Pseudomonas aeruginosa; format: functional
Salmonella typhimurium [33] = assay: Ratio of MBC to MIC for Salmonella typhimurium; format: functional, Salmonella enterica subsp. enterica serovar Typhimurium
Vibrio cholerae [34] = assay: Ratio of MBC to MIC for Vibrio cholerae; format: functional
Shigella boydii [35] = assay: Ratio of MBC to MIC for Shigella boydii; format: functional
Klebsiella pneumoniae [36] = assay: Ratio of MBC to MIC for Klebsiella pneumoniae; format: functional
Klebsiella aerogenes [37] = assay: Ratio of MBC to MIC for Enterobacter aerogenes; format: functional
Acinetobacter baumannii [38] = assay: Ratio of MBC to MIC for Acinetobacter baumannii; format: functional
Edwardsiella tarda [39] = assay: Ratio of MBC to MIC for Edwardsiella tarda; format: functional
Morganella morganii [40] = assay: Ratio of MBC to MIC for Morganella morganii; format: functional
Staphylococcus aureus [41] = assay: Ratio of MBC to MIC for Staphylococcus aureus; format: functional
Streptococcus pyogenes [42] = assay: Ratio of MBC to MIC for Streptococcus pyogenes; format: functional
Escherichia coli [43] = assay: Induction of membrane permeabilization in Escherichia coli BW25113 at MIC to 2 times MIC after 5 mins by propidium iodide staining-based flow cytometric method; format: functional
Escherichia coli [44] = assay: Induction of membrane permeabilization in Escherichia coli BW25113 at MIC after 15 mins by propidium iodide staining-based fluorescence microplate reader method relative to 50% ethanol; format: functional
Escherichia coli [45] = assay: Antibacterial activity against Escherichia coli BW25113 by multiple copy suppression assay; format: functional
Escherichia coli [46] = assay: Antibacterial activity against Escherichia coli 5-NOT mutant 8 harboring ydeA gene mutation by multiple copy suppression assay; format: functional
Escherichia coli [47] = assay: Antibacterial activity against Escherichia coli 5-NOT mutant 8 harboring pykA gene mutation by multiple copy suppression assay; format: functional
Escherichia coli [48] = assay: Antibacterial activity against Escherichia coli 5-NOT mutant 8 harboring otsA gene mutation by multiple copy suppression assay; format: functional
Escherichia coli [49] = assay: Antibacterial activity against Escherichia coli 5-NOT mutant 15-1 harboring ydeA gene mutation by multiple copy suppression assay; format: functional
Escherichia coli [50] = assay: Antibacterial activity against Escherichia coli 5-NOT mutant 15-1 harboring thrS gene mutation by multiple copy suppression assay; format: functional
Escherichia coli [51] = assay: Antibacterial activity against Escherichia coli 5-NOT mutant 15-1 harboring pykA gene mutation by multiple copy suppression assay; format: functional
Escherichia coli [52] = assay: Adjuvant activity assessed as potentiation of chloramphenicol-induced antibacterial activity against Escherichia coli BW25113 at 0.5 times MIC after 16 to 18 hrs by checkerboard assay (reference value: 8 ng/ml); format: functional
Escherichia coli [53] = assay: Adjuvant activity assessed as potentiation of chloramphenicol-induced antibacterial activity against Escherichia coli BW25113 at 0.25 times MIC after 16 to 18 hrs by checkerboard assay (reference value: 8 ng/ml); format: functional
Escherichia coli [54] = assay: Adjuvant activity assessed as potentiation of tetracycline-induced antibacterial activity against Escherichia coli BW25113 at 0.5 times MIC after 16 to 18 hrs by checkerboard assay (reference value: 2 ng/ml); format: functional
Escherichia coli [55] = assay: Adjuvant activity assessed as potentiation of tetracycline-induced antibacterial activity against Escherichia coli BW25113 at 0.25 times MIC after 16 to 18 hrs by checkerboard assay (reference value: 2 ng/ml); format: functional
Escherichia coli [56] = assay: Adjuvant activity assessed as potentiation of ciprofloxacin-induced antibacterial activity against Escherichia coli BW25113 at 0.5 times MIC after 16 to 18 hrs by checkerboard assay (reference value: 13 ng/ml); format: functional
Escherichia coli [57] = assay: Adjuvant activity assessed as potentiation of ciprofloxacin-induced antibacterial activity against Escherichia coli BW25113 at 0.25 times MIC after 16 to 18 hrs by checkerboard assay (reference value: 13 ng/ml); format: functional
Escherichia coli [58] = assay: Adjuvant activity assessed as potentiation of rifampicin-induced antibacterial activity against Escherichia coli BW25113 at 0.5 times MIC after 16 to 18 hrs by checkerboard assay (reference value: 8 ng/ml); format: functional
Escherichia coli [59] = assay: Adjuvant activity assessed as potentiation of rifampicin-induced antibacterial activity against Escherichia coli BW25113 at 0.25 times MIC after 16 to 18 hrs by checkerboard assay (reference value: 8 ng/ml); format: functional
Homo sapiens = species: Homo sapiens; assay: Selectivity ratio of Ki for 5-HT1A receptor (unknown origin) to Ki for human 5-HT1D receptor

COc1ccc2c(CCN)c[nH]c2c1
MIC (Escherichia coli [1]): > 60.8 µg/mL
MIC (Escherichia coli [2]): > 60.8 µg/mL
MIC (Bacillus subtilis [3]): > 60.8 µg/mL
MIC (Acinetobacter baumannii [4]): > 60.8 µg/mL
MIC (Staphylococcus aureus [5]): > 60.8 µg/mL

CCCCCCCCCOc1cccc(N)c1
MIC (Escherichia coli [1]): > 40 µg/mL
MIC (Escherichia coli [2]): 10 µg/mL (≈ 42.5 µM)
MIC (Bacillus subtilis [3]): 40 µg/mL (≈ 170 µM)
MIC (Pseudomonas aeruginosa [6]): > 80 µg/mL
MIC (Salmonella typhimurium [7]): > 80 µg/mL
MIC (Vibrio cholerae [8]): > 80 µg/mL
MIC (Shigella boydii [9]): > 80 µg/mL
MIC (Klebsiella pneumoniae [10]): > 80 µg/mL
MIC (Klebsiella aerogenes [11]): > 80 µg/mL
MIC (Acinetobacter baumannii [4]): > 80 µg/mL
MIC (Edwardsiella tarda [12]): > 80 µg/mL
MIC (Morganella morganii [13]): > 80 µg/mL
MIC (Staphylococcus aureus [5]): > 80 µg/mL

CCCCCCCCCOc1cccc(CN)c1
MIC (Escherichia coli [1]): 9.4 µg/mL (≈ 37.7 µM)
MIC (Escherichia coli [2]): 4.7 µg/mL (≈ 18.8 µM)
MIC (Bacillus subtilis [3]): 4.7 µg/mL (≈ 18.8 µM)
MIC (Pseudomonas aeruginosa [6]): > 75 µg/mL
MIC (Salmonella typhimurium [7]): 4.7 µg/mL (≈ 18.8 µM)
MIC (Vibrio cholerae [8]): 4.7 µg/mL (≈ 18.8 µM)
MIC (Shigella boydii [9]): 9.4 µg/mL (≈ 37.7 µM)
MIC (Klebsiella pneumoniae [10]): 9.4 µg/mL (≈ 37.7 µM)
MIC (Klebsiella aerogenes [11]): 9.4 µg/mL (≈ 37.7 µM)
MIC (Acinetobacter baumannii [4]): 9.4 µg/mL (≈ 37.7 µM)
MIC (Edwardsiella tarda [12]): 19 µg/mL (≈ 76.2 µM)
MIC (Morganella morganii [13]): 38 µg/mL (≈ 152 µM)
MIC (Staphylococcus aureus [5]): 9.4 µg/mL (≈ 37.7 µM)

CCCCCCCCCOc1ccc2[nH]cc(CCN)c2c1.Cl
MIC (Escherichia coli [1]): 6 µg/mL
MIC (Escherichia coli [2]): 1.5 µg/mL
MIC (Bacillus subtilis [3]): 0.76 µg/mL
MIC (Pseudomonas aeruginosa [6]): 24 to 96 µg/mL
MIC (Salmonella typhimurium [7]): 6 to 24 µg/mL
MIC (Vibrio cholerae [8]): 6 to 24 µg/mL
MIC (Shigella boydii [9]): 6 µg/mL
MIC (Klebsiella pneumoniae [10]): 6 µg/mL
MIC (Klebsiella aerogenes [11]): 6 to 24 µg/mL
MIC (Acinetobacter baumannii [4]): 6 µg/mL
MIC (Edwardsiella tarda [12]): 6 to 12 µg/mL
MIC (Morganella morganii [13]): 12 to 24 µg/mL
MIC (Staphylococcus aureus [5]): 6 µg/mL
MIC (Streptococcus pyogenes [14]): 24 µg/mL
MBC (Escherichia coli [15]): 12 µg/mL
MBC (Escherichia coli [16]): 6 µg/mL
MBC (Bacillus subtilis [17]): 0.76 µg/mL
MBC (Pseudomonas aeruginosa [18]): 96 µg/mL
MBC (Salmonella typhimurium [19]): 24 µg/mL
MBC (Vibrio cholerae [20]): 24 µg/mL
MBC (Shigella boydii [21]): 6 µg/mL
MBC (Klebsiella pneumoniae [22]): 6 µg/mL
MBC (Klebsiella aerogenes [23]): > 24 µg/mL
MBC (Acinetobacter baumannii [24]): 6 µg/mL
MBC (Edwardsiella tarda [25]): 12 µg/mL
MBC (Morganella morganii [26]): 24 µg/mL
MBC (Staphylococcus aureus [27]): 6 µg/mL
MBC (Streptococcus pyogenes [28]): 24 µg/mL
Ratio (Escherichia coli [29]): 2
Ratio (Escherichia coli [30]): 4
Ratio (Bacillus subtilis [31]): 1
Ratio (Pseudomonas aeruginosa [32]): 4
Ratio (Salmonella typhimurium [33]): 4
Ratio (Vibrio cholerae [34]): 4
Ratio (Shigella boydii [35]): 1
Ratio (Klebsiella pneumoniae [36]): 1
Ratio (Klebsiella aerogenes [37]): >4
Ratio (Acinetobacter baumannii [38]): 1
Ratio (Edwardsiella tarda [39]): 2
Ratio (Morganella morganii [40]): 2
Ratio (Staphylococcus aureus [41]): 2
Ratio (Streptococcus pyogenes [42]): 1
Activity (Escherichia coli [43]): Active
Activity (Escherichia coli [44]): 100%
MIC (Escherichia coli [45]): 80 µM
MIC (Escherichia coli [46]): 80 µM
MIC (Escherichia coli [47]): 80 µM
MIC (Escherichia coli [48]): 80 µM
MIC (Escherichia coli [49]): 80 µM
MIC (Escherichia coli [50]): 80 µM
MIC (Escherichia coli [51]): 80 µM
MIC (Escherichia coli [52]): 0.008 µg/mL
MIC (Escherichia coli [53]): 0.008 µg/mL
MIC (Escherichia coli [54]): 0.002 µg/mL
MIC (Escherichia coli [55]): 0.002 µg/mL
MIC (Escherichia coli [56]): 0.013 µg/mL
MIC (Escherichia coli [57]): 0.013 µg/mL
MIC (Escherichia coli [58]): 0.008 µg/mL
MIC (Escherichia coli [59]): 0.008 µg/mL
Ratio Ki (Homo sapiens): 300

CCCCOc1ccc2[nH]cc(CCN)c2c1.Cl
MIC (Escherichia coli [1]): > 74.3 µg/mL
MIC (Escherichia coli [2]): > 74.3 µg/mL
MIC (Bacillus subtilis [3]): > 74.3 µg/mL
MIC (Pseudomonas aeruginosa [6]): > 74 µg/mL
MIC (Salmonella typhimurium [7]): > 74 µg/mL
MIC (Vibrio cholerae [8]): > 74 µg/mL
MIC (Shigella boydii [9]): > 74 µg/mL
MIC (Klebsiella pneumoniae [10]): > 74 µg/mL
MIC (Klebsiella aerogenes [11]): > 74 µg/mL
MIC (Acinetobacter baumannii [4]): > 74.3 µg/mL
MIC (Edwardsiella tarda [12]): > 74 µg/mL
MIC (Morganella morganii [13]): > 74 µg/mL
MIC (Staphylococcus aureus [5]): > 74.3 µg/mL
Activity (Escherichia coli [44]): 3%
